Hepatic extraction ratio data for ten molecules are collected here from ChEMBL document CHEMBL4834489 (ACS Med Chem Lett, 2021).

The nature of series [1]: Clearance in human liver microsomes at 1 uM followed by NADPH addition measured up to 60 mins by LC-MS/MS analysis relative to hepatic blood flow. Particulars: read-out: CLH. In kind it is ADME, Microsome. (In general: Liver microsomes are a subcellular fraction often used to study metabolism.)
Series [2] in a line: Clearance in human hepatocytes at 1 uM measured up to 6 hrs by LC-MS/MS analysis relative to hepatic blood flow. It is filed as ADME, cell-based, Hepatocyte. The note with it: read-out: CLH.

Each structure is given as a SMILES string.

`Cc1c(C(=O)NCC(C)(C)O)sc2ncn(Cc3nc(C[C@H](O)c4ccc(Cl)cc4)no3)c(=O)c12`: the hepatic extraction ratio at 1 h, 1 µM in series [1] was less than 0.23. Besides, in series [2], the hepatic extraction ratio at 6 h, 1 µM worked out at 0.18.
The like results for `O=C1NCCc2c1sc1ncn(Cc3nc(C[C@H](O)c4ccc(Cl)cc4)no3)c(=O)c21` were, in that order, less than 0.23 and 0.31.
For `Cc1c(C(N)=O)sc2ncn(Cc3nc(C[C@H](O)c4cc5ccccc5o4)no3)c(=O)c12`, the hepatic extraction ratio at 1 h, 1 µM in series [1] is less than 0.23. Besides, in series [2], the hepatic extraction ratio at 6 h, 1 µM was 0.36.
As to `NC(=O)c1sc2ncn(Cc3nc(C[C@H](O)c4ccc(Cl)cc4)no3)c(=O)c2c1Cl`, in series [1], the hepatic extraction ratio at 1 h, 1 µM was less than 0.23. In addition, in series [2], the hepatic extraction ratio at 6 h, 1 µM was 0.39.
Turning to `Cc1c(C(N)=O)sc2ncn(Cc3nc(C[C@H](O)c4cc(F)cc(F)c4)no3)c(=O)c12`, the hepatic extraction ratio at 1 h, 1 µM in series [1] is less than 0.23. The hepatic extraction ratio at 6 h, 1 µM in series [2] was found to be 0.23.
In the case of `CNC(=O)c1sc2ncn(Cc3nc(C[C@H](O)c4ccc5c(c4)OCO5)no3)c(=O)c2c1C`, the hepatic extraction ratio at 1 h, 1 µM in series [1] worked out at 0.29. The hepatic extraction ratio at 6 h, 1 µM in series [2] was 0.24.
The like results for `Cc1c(C(=O)NCC(F)F)sc2ncn(Cc3nc(C[C@H](O)c4ccc(Cl)cc4)no3)c(=O)c12` were, in that order, 0.24 and 0.36.
The like results for `CNC(=O)c1sc2ncn(Cc3nc(C[C@H](O)c4ccc(Cl)cc4)no3)c(=O)c2c1C` were, in that order, less than 0.23 and 0.29.
For the molecule `Cc1c(C(N)=O)sc2ncn(Cc3nc(C[C@H](O)c4ccc5c(c4)OCO5)no3)c(=O)c12`, in series [1], the hepatic extraction ratio at 1 h, 1 µM is less than 0.23. The hepatic extraction ratio at 6 h, 1 µM in series [2] amounted to 0.24.
Consider `Cc1c(C(N)=O)sc2ncn(Cc3nc(C[C@H](O)c4ccc(Cl)cc4)no3)c(=O)c12`, for which the hepatic extraction ratio at 1 h, 1 µM in series [1] amounted to 0.29. For the same molecule, in series [2], the hepatic extraction ratio at 6 h, 1 µM worked out at 0.25.
